Literature values in article PMC3649970, “A Unique Spumavirus Gag N-terminal Domain with Functional Properties of Orthoretroviral Matrix and Capsid” (PLoS Pathogens, 2013).

Test system: equivalent Gag-NtD (FFV)
Details: FFV Env leader peptide with FFV Gag-NtD; ref [29]; cited from earlier work
Excerpt: In the structure, residues 7–16 of the Env leader peptide comprise the amphipathic α-helix bound in the Env binding site of the Gag-NtD and residues 1–6 provide intramolecular hydrogen bonding that stabilises the helical conformation. […] Therefore, the hydrophobic interface observed in the structure likely represents the complete interaction between the leader peptide and FV Gag. The apolar ch ...

Substance: residues 1–30 of the FFV Env leader peptide: residues 1–30 of the FFV Env leader peptide (MEQEHVMTLKEWMEWNAHKQLQKLQSTHPE; leader peptide; UniProt O56861 1-30, looked up, fragment)
- equilibrium association constant: 65000 M⁻¹
